How the values were obtained:
Assay type in all cases: functional, cell-based
[1] = system: PC-3; assay: Cytotoxicity against human PC3 cells after 48 hrs by SRB assay; settings: PC-3, 48 h
[2] = system: HeLa; assay: Cytotoxicity against human HeLa cells after 48 hrs by SRB assay
[3] = system: HepG2; assay: Cytotoxicity against human HepG2 cells after 48 hrs by SRB assay; settings: HepG2, 48 h

| Compound | IC50 [1] | IC50 [2] | IC50 [3] |
| --- | --- | --- | --- |
| CN1C[C@@H](c2ccc(Cl)cc2Cl)[C@@]2(CCC/C(=C\c3ccc(Cl)cc3Cl)C2=O)[C@@]12C(=O)N(CN1CCOCC1)c1ccccc12 | 21.9 µM | 22.3 µM | 24.9 µM |
| CN1C[C@@H](c2ccccc2)[C@@]2(CCC/C(=C\c3ccccc3)C2=O)[C@@]12C(=O)N(CN1CCOCC1)c1ccccc12 | 26.7 µM | 14.8 µM | 13.3 µM |
| CN1C[C@@H](c2cccs2)[C@@]2(CCC/C(=C\c3cccs3)C2=O)[C@@]12C(=O)N(CN1CCOCC1)c1ccccc12 | 30.1 µM | 27.4 µM | 30 µM |
| Cc1ccc(/C=C2\CCC[C@]3(C2=O)[C@H](c2ccc(C)cc2)CN(C)[C@]32C(=O)N(CN3CCOCC3)c3ccccc32)cc1 | 32.9 µM | 13.3 µM | 21.7 µM |
| COc1cccc2c1C(=O)c1c(O)c3c(c(O)c1C2=O)C[C@@](O)(C(=O)CO)C[C@@H]3O[C@H]1C[C@H](N)[C@H](O)[C@H](C)O1 [DOXORUBICIN] | 8.83 µM | 7.71 µM | – |
| COc1ccc(/C=C2\CCC[C@]3(C2=O)[C@H](c2ccc(OC)cc2)CN(C)[C@]32C(=O)N(CN3CCOCC3)c3ccccc32)cc1 | 58.8 µM | 18.5 µM | 18.7 µM |
| COc1ccc(/C=C2\CCC[C@]3(C2=O)[C@H](c2ccc(OC)c(OC)c2)CN(C)[C@]32C(=O)N(CN3CCOCC3)c3ccccc32)cc1OC | 32 µM | 10.9 µM | 6.99 µM |
| CN1C[C@@H](c2ccc(F)cc2)[C@@]2(CCC/C(=C\c3ccc(F)cc3)C2=O)[C@@]12C(=O)N(CN1CCOCC1)c1ccccc12 | 19.5 µM | 6.96 µM | 8.09 µM |
| Cc1ccc(/C=C2\CCC[C@]3(C2=O)[C@H](c2ccc(C)o2)CN(C)[C@]32C(=O)N(CN3CCOCC3)c3ccccc32)o1 | 21.2 µM | 18 µM | 28.4 µM |

Source: ChEMBL document CHEMBL2424604, “Design, synthesis and QSAR studies of dispiroindole derivatives as new antiproliferative agents” (Eur J Med Chem, 2013)
